Results as given in patent US20170122958A1, “Enzymes Functional Probes” (University of Dundee, priority 2013, published 2017).
Where “and” joins values, the source holds several entries; their conditions need not be identical. Equal values may be shown once.

Key:
Type in all cases: binding
Brd2(2)*(Leu383-Ala) [1] = molecular target: T1, Brd2(2)*(Leu383-Ala) (Homo sapiens, UniProt P25440, L383A); assay: DSF thermal shift; parameters: Plasmids of the eight single BET bromodomain constructs Brd2(1), Brd2(2), Brd3(1), Brd3(2); His6 (N); made in house; host or cells: E. coli BL21(DE3); conditions: mutant
T1 sequence (P25440 344-453 L383A limits assumed): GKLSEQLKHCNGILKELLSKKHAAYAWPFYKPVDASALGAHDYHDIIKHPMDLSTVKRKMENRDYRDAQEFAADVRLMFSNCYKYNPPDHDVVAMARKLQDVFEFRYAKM
Procedure: (§1) DSF assays were performed on a LightCycler®480 from Roche or a Mx3005P Real Time PCR machine from Stratagene. […] SYPRO®Orange from Invitrogen Molecular Probes® was used as a reporter dye to monitor the denaturing process of the proteins. Samples were assayed on a 96-well plate with final protein concentrations of 2 μM for the LightCycler®480 and 6 μM for Mx3005P. Compounds were added at a final concentration of 10 μM for the LightCycler®480 and 30 μM for Mx3005P, while the tetra acetylated histone peptide was added to a final concentration of 100 μM and 300 μM respectively. […] The temperature was raised with a step of 0.6° C. per minute from 37° C. to 95° C. with the LightCycler®480 collecting 39 measurements per ° C., and 1° C. per minute from 25° C. to 95° C. with Mx3005P, collecting fluorescence readings at the end of each interval. Each sample was run in triplicates.
(§2) Collected data was analysed by IGOR Pro 6, a scientific software tool from Wave Metrics, Inc. Analysis was done following the recommendations of Niesen et al.. Fluorescence intensity was plotted as a function of temperature, generating a sigmoidal curve described by a two-state transition from folded to unfolded protein. Curves were fitted by the following sigmoidal equation: […]
(§3) A1 and A2 are the values of minimum and maximum intensities, respectively, x0 is the inflection point and dx is the rate. Fitted curves were differentiated in IGOR Pro 6 and the maximum of the first derivative was identified using the same program. These values correspond to the inflection points of the transition curves and thus to the melting temperatures of the proteins (Tm).

Brd2(1)*(Leu110-Ala) [2] = molecular target: T2, Brd2(1)*(Leu110-Ala) (Homo sapiens, UniProt P25440, L110A); assay: DSF thermal shift; parameters: Plasmids of the eight single BET bromodomain constructs Brd2(1), Brd2(2), Brd3(1), Brd3(2); His6 (N); made in house; host or cells: E. coli BL21(DE3); conditions: mutant
T2 sequence (P25440 74-180 L110A limits assumed): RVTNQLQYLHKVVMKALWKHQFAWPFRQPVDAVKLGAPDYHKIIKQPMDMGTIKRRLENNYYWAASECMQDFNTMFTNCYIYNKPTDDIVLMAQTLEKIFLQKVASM
Procedure: as §1, §2, §3

Brd3(1)* (L070A) = molecular target: T3, Brd3(1)* (L070A) (Homo sapiens, UniProt Q15059, L70A); assay: DSF thermal shift; conditions: mutant
T3 construct: Plasmids of the eight single BET bromodomain constructs Brd2(1), Brd2(2), Brd3(1), Brd3(2); His6 (N); made in house; host or cells: E. coli BL21(DE3)
T3 sequence (Q15059 34-140 L70A limits assumed): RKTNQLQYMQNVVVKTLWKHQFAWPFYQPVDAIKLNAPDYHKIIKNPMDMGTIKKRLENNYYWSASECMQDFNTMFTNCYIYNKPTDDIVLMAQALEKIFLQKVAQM

Brd2(2)*(Leu383-Ala) [3] = molecular target: T1, Brd2(2)*(Leu383-Ala); assay: ITC reverse titration of protein into compound; parameters: Plasmids of the eight single BET bromodomain constructs Brd2(1), Brd2(2), Brd3(1), Brd3(2), Brd4(1), Brd4(2), Brdt(1) and Brdt(2); His6 (N); made in house; host or cells: E. coli BL21(DE3); conditions: for ΔH Brd2(2)* (Leu383-Ala) / Kd: ITC 25° C.; for Kd: Kd Brd2(2)* (Leu383-Ala); for Selectivity factor Kd WT/Kd Leu/Ala: 30° C.
Procedure: (§4) ITC experiments were carried out on a ITC200 instrument from MicroCal™ Experiments were conducted at 3 different temperatures 15° C., 25° C. and 30° C., while stirring at 1000 rpm. Buffers of proteins, peptide and compounds were matched to 20 mM HEPES pH 7.5 at 25° C. and 100 mM NaCl. Frozen protein was buffer exchanged as described for the DSF experiments. Each titration comprised 1 initial injection of 0.4 μl lasting 0.8 s, followed by 19 injections of 2 μl lasting 4 s each at 2 min intervals. The initial injection was discarded during data analysis. Standard and reverse titrations were conducted depending on the binding partners.
(§5) Reverse titrations were conducted to test the binding of the known ligands and the novel chemical probes to the wild types and the mutants. Experiments were carried out either at 25° C. or 30° C. […] In cases where the compound was solubilized in dimethyl sulfoxide, DMSO concentration was adjusted to 1% both in the syringe and in the cell.
(§6) All the data was fitted to a single binding site model using the Microcal LLC ITC200 Origin software provided by the manufacturer to yield enthalpies of binding (ΔH) and binding constants (Kas). Further thermodynamic parameters were calculated from these values (changes in entropy ΔS, changes in free energy AG and dissociation constants (Kds)).

Brd2(1)*(Leu110-Ala) [4] = molecular target: T2, Brd2(1)*(Leu110-Ala); assay: ITC reverse titration of protein into compound; parameters: Plasmids of the eight single BET bromodomain constructs Brd2(1), Brd2(2), Brd3(1), Brd3(2), Brd4(1), Brd4(2), Brdt(1) and Brdt(2); His6 (N); made in house; host or cells: E. coli BL21(DE3); conditions: for ΔH Brd2(1)* (Leu110-Ala): ITC 25° C.; for Selectivity factor Kd WT/Kd Leu/Ala: 30° C.
Procedure: as §4, §5, §6

brd3(2)L344A = molecular target: T4, brd3(2)L344A (Homo sapiens, UniProt Q15059, L345A); assay: DSF thermal shift; conditions: mutant
T4 construct: Plasmids of the eight single BET bromodomain constructs Brd2(1), Brd2(2), Brd3(1), Brd3(2), Brd4(1), Brd4(2), Brdt(1) and Brdt(2); His6 (N); made in house; host or cells: E. coli BL21(DE3)
T4 sequence (Q15059 306-415 L345A): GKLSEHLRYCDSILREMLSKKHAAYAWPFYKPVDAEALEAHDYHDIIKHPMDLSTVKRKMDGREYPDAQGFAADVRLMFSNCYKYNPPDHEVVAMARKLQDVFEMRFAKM

Brd2(2) = molecular target: T5, Brd2(2) (Homo sapiens, UniProt P25440); assay: ITC reverse titration of protein into compound; conditions: ITC 25° C.; for Kd: Kd Brd2(2)
T5 construct: Plasmids of the eight single BET bromodomain constructs Brd2(1), Brd2(2), Brd3(1), Brd3(2); His6 (N); made in house; host or cells: E. coli BL21(DE3)
T5 sequence (P25440 344-453 limits assumed): as the sequence (P25440 344-453 L383A limits assumed) above, with A40L counted along it
Procedure: as §4, §5, §6

Brd2(1) = molecular target: T6, Brd2(1) (Homo sapiens, UniProt P25440); assay: ITC reverse titration of protein into compound; conditions: for ΔH Brd2(1): ITC 25° C.
T6 construct: Plasmids of the eight single BET bromodomain constructs Brd2(1), Brd2(2), Brd3(1), Brd3(2); His6 (N); made in house; host or cells: E. coli BL21(DE3)
T6 sequence (P25440 74-180 limits assumed): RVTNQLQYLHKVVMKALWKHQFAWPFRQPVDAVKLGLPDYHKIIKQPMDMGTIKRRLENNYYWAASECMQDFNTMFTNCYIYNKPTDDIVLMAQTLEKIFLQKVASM
Procedure: as §4, §5, §6

| Structure (SMILES) | ΔTm Brd2(2)*(Leu383-Ala) (Brd2(2)*(Leu383-Ala) [1]) [K] | ΔTm Brd2(1)*(Leu110-Ala) (Brd2(1)*(Leu110-Ala) [2]) [K] | ΔTm Brd3(1)* (L070A) (Brd3(1)* (L070A)) [K] | ΔH Brd2(2)* (Leu383-Ala) (Brd2(2)*(Leu383-Ala) [3]) [kcal/mol] | Kd (Brd2(2)*(Leu383-Ala) [3]) | Kd (Brd2(1)*(Leu110-Ala) [4]) [nM] | ΔH Brd2(1)* (Leu110-Ala) (Brd2(1)*(Leu110-Ala) [4]) [cal/mol] | ΔTm Brd3(2)* (L344A) (brd3(2)L344A) [K] | ΔH Brd2(2) (Brd2(2)) [kcal/mol] | Kd (Brd2(2)) | Kd (Brd2(1)) [nM] | ΔH Brd2(1) (Brd2(1)) [kcal/mol] | further results |
| --- | --- | --- | --- | --- | --- | --- | --- | --- | --- | --- | --- | --- | --- |
| COC(=O)[C@H](C)[C@@H]1N=C(c2ccc(Cl)cc2)c2cc(OC)ccc2-n2c(C)nnc21 (racemic) [Compound 7, (+−)-methyl (R)-2-((S)-6-(4-chlorophenyl)-8-methoxy-1-methyl-4H-benzo[f][1,2,4]triazolo[4,3-a][1,4]diazepin-4-yl)propanoate] | 9.3 ± 0.2 | 7.9 ± 0.2 | 10.8 ± 0.3 | -12.61 ± 0.08606 | 22 nM and 22.3 nM | 17 | −16780 ± 161.4 | 15.6 ± 0.4 | -5.36 ± 0.117 | 300 nM and 298 nM | 1470 | -8.653 ± 0.1357 | Thermal stabilisation brd2(2)L383A (Brd2(2)*(Leu383-Ala) [1]): 9.3 ± 0.2 °C; Thermal stabilisation brd2(2)L383A (Brd2(2)*(Leu383-Ala) [1]; listed as compound 7): 9.3 °C; Thermal stabilisation brd2(1)L110A (Brd2(1)*(Leu110-Ala) [2]): 7.9 ± 0.2 °C; Thermal stabilisation brd2(1)L110A (Brd2(1)*(Leu110-Ala) [2]; listed as compound 7): 7.9 °C |
| CC[C@@H](C(=O)OC)[C@@H]1N=C(c2ccc(Cl)cc2)c2cc(OC)ccc2-n2c(C)nnc21 (racemic) [Compound 11, (+−)-methyl (R)-2-((S)-6-(4-chlorophenyl)-8-methoxy-1-methyl-4H-benzo[f][1,2,4]triazolo[4,3-a][1,4]diazepin-4-yl)butanoate] | 8.1 ± 0.2 | 7.6 ± 0.2 | 10.4 ± 0.3 | -10.71 ± 0.1028 | 21.7 ± 5.6 nM | 42.7 ± 7.8 | −16220 ± 130.9 | 13.4 ± 0.6 | -3.601 ± 0.0852 | 2200 ± 400 nM | 1780 ± 2000 | -2.957 ± 0.2144 | Selectivity factor Kd WT/Kd Leu/Ala (Brd2(2)*(Leu383-Ala) [3]; brd2(2)L383A vs WT brd2(1)): 105; Selectivity factor Kd WT/Kd Leu/Ala (Brd2(2)*(Leu383-Ala) [3]; brd2(2)L383A vs WT brd2(2)): 203; Selectivity factor Kd WT/Kd Leu/Ala (Brd2(2)*(Leu383-Ala) [3]; brd2(2)L383A vs WT brd3(1)): 82; Selectivity factor Kd WT/Kd Leu/Ala (Brd2(2)*(Leu383-Ala) [3]; brd2(2)L383A vs WT brd3(2)): 87; Selectivity factor Kd WT/Kd Leu/Ala (Brd2(2)*(Leu383-Ala) [3]; brd2(2)L383A vs WT brd4(1)): 150; Selectivity factor Kd WT/Kd Leu/Ala (Brd2(2)*(Leu383-Ala) [3]; brd2(2)L383A vs WT brd4(2)): 118; Selectivity factor Kd WT/Kd Leu/Ala (Brd2(2)*(Leu383-Ala) [3]; brd2(2)L383A vs WT brdt(1)): 101; Selectivity factor Kd WT/Kd Leu/Ala (Brd2(2)*(Leu383-Ala) [3]; brd2(2)L383A vs WT brdt(2)): 144; Selectivity factor Kd WT/Kd Leu/Ala (Brd2(1)*(Leu110-Ala) [4]; brd2(1)L110A vs WT brd2(1)): 123; Selectivity factor Kd WT/Kd Leu/Ala (Brd2(1)*(Leu110-Ala) [4]; brd2(1)L110A vs WT brd2(2)): 236; Selectivity factor Kd WT/Kd Leu/Ala (Brd2(1)*(Leu110-Ala) [4]; brd2(1)L110A vs WT brd3(1)): 96; Selectivity factor Kd WT/Kd Leu/Ala (Brd2(1)*(Leu110-Ala) [4]; brd2(1)L110A vs WT brd3(2)): 101; Selectivity factor Kd WT/Kd Leu/Ala (Brd2(1)*(Leu110-Ala) [4]; brd2(1)L110A vs WT brd4(1)): 174; Selectivity factor Kd WT/Kd Leu/Ala (Brd2(1)*(Leu110-Ala) [4]; brd2(1)L110A vs WT brd4(2)): 138; Selectivity factor Kd WT/Kd Leu/Ala (Brd2(1)*(Leu110-Ala) [4]; brd2(1)L110A vs WT brdt(1)): 117; Selectivity factor Kd WT/Kd Leu/Ala (Brd2(1)*(Leu110-Ala) [4]; brd2(1)L110A vs WT brdt(2)): 167; Selectivity against all other bromodomains (Brd2(1)*(Leu110-Ala) [4]; mutated Brd2(1) vs all other (wild type) bromodomains): ≥ 96 fold |
